Experiments:
[1] = tested on: Ristocetin-Induced Platelet Aggregation; assay: Platelet aggregation inhibitory activity: ristocetin-induced platelet aggregation in platelet rich plasma; type: cell-based; settings: Cavia porcellus, guinea pig PRP
Description: (§1) A blood of a guinea pig was sampled by using a 1/10 volume of a 3.8% sodium citrate as a platelet aggregation inhibitor, and a platelet rich plasma (PRP) was separated by centrifuging the blood sample at 1100 rpm for 10 min. After fractionating the PRP in the upper layer, the lower layer was centrifuged at 3000 rpm for 10 min to fractionate the platelet poor plasma (PPP). To 100 μL of PRP, a 1 μL solution of each compound was added, and after still standing at 37° C. for 1 min, the mixture was stirred at 37° C. for 1 min by a stirrer. Then, 11 μL of collagen, ristocetin, or ADP was added thereto to induce the platelet aggregation. The platelet aggregation ability was measured by using the mCM hematolaser 313M (L-M-S Inc.). Based on the assumption that a light transmittance of PPP corresponds to a 100% coagulation value, an aggregation rate at each concentration of the compound was determined, then, an IC50 value was calculated therefrom.
[Platelet Aggregation Inhibitory Activities: Ristocetin-Induced Platelet Aggregation]

[2] = tested on: Collagen-Induced Platelet Aggregation; assay: Platelet aggregation inhibitory activity: collagen-induced platelet aggregation in platelet rich plasma; type: cell-based; settings: Cavia porcellus, guinea pig PRP
Description: as §1
[Platelet Aggregation Inhibitory Activities: Collagen-Induced Platelet Aggregation]

With `COc1ccc(-n2c(-c3ccccn3)nc3cc(OCC(C)C)cnc32)cn1` [Example 174, 6-isobuthoxy-3-(6-methoxypyridin-3-yl)-2-pyridin-2-yl-3H-imidazo[4,5-b]pyridine] the IC50 [1] was 87 nM and the IC50 [2] was 84 nM.

In the case of `COc1ccc(-n2c(-c3cscn3)nc3cc(C(F)(F)F)cnc32)cn1` [Example 109, 3-(6-methoxypyridin-3-yl)-2-(1,3-thiazol-4-yl)-6-(trifluoromethyl)-3H-imidazo[4,5-b]pyridine], the IC50 [1] is reported as 23 nM and the IC50 [2] is reported as 95 nM.

`COc1ccc(-n2c(-c3cc(C)ccn3)nc3cc(C(F)(F)F)ccc32)nn1` [Example 58, 1-(6-methoxypyridazin-3-yl)-2-(4-methylpyridin-2-yl)-5-(trifluoromethyl)-1H-benzimidazole] showed an IC50 [1] of 280 nM and an IC50 [2] of 170 nM.

`COc1ccc(-n2c(-c3ccc(OC)nn3)nc3cc(C(F)(F)F)ccc32)cn1` [Example 9, 2-(6-methoxypyridazin-3-yl)-1-(6-methoxypyridin-3-yl)-5-(trifluoromethyl)-1H-benzimidazole] showed an IC50 [1] of 140 nM and an IC50 [2] of 150 nM.

`COc1ccc(-n2c(-c3ncccc3C#N)nc3cc(C(F)(F)F)ccc32)nn1` [Example 81, 2-[1-(6-methoxypyridazin-3-yl)-5-(trifluoromethyl)-1H-benzimidazole-2-yl]nicotinonitrile] was tested, and the IC50 [1] was 500 nM and the IC50 [2] was 220 nM.

Compound `COc1ccc(-n2c(-c3coc(C)n3)nc3cc(OC(F)(F)F)ccc32)nn1` [Example 158, 1-(6-methoxypyridazin-3-yl)-2-(2-methyl-1,3-oxazol-4-yl)-5-(trifluoromethoxy)-1H-benzimidazole] has an IC50 [1] of 60 nM and an IC50 [2] of 60 nM.

`COc1ccc(-n2c(-c3cc(Br)ccn3)nc3cc(C(F)(F)F)ccc32)nn1` [Example 75, 2-(4-bromopyridin-2-yl)-1-(6-methoxypyridazin-3-yl)-5-(trifluoromethyl)-1H-benzimidazole] showed an IC50 [1] of 380 nM and an IC50 [2] of 200 nM.

With `COc1ccc(-n2c(-c3ccc([N+](=O)[O-])cn3)nc3cc(C(F)(F)F)ccc32)nn1` [Example 53, 1-(6-methoxypyridazin-3-yl)-2-(5-nitropyridin-2-yl)-5-(trifluoromethyl)-1H-benzimidazole] the IC50 [1] was 42 nM and the IC50 [2] was 57 nM.

`COc1cnc(-n2c(-c3cocn3)nc3cc(C(F)(F)F)cnc32)cn1` [Example 151, 3-(5-methoxypyrazine-2-yl)-2-(1,3-oxazol-4-yl)-6-(trifluoromethyl)-3H-imidazo[4,5-b]pyridine] gave an IC50 [1] of 24 nM and an IC50 [2] of 24 nM.

`CSc1ccc(-n2c(-c3ccccn3)nc3cc(C(F)(F)F)ccc32)nn1` [Example 67, 1-[6-(methylthio)pyridazin-3-yl]-2-pyridin-2-yl-5-(trifluoromethyl)-1H-benzimidazole] gave an IC50 [1] of 230 nM and an IC50 [2] of 170 nM.

`CCc1ccc2c(c1)nc(-c1ccccn1)n2-c1ccc(OC)nc1` [Example 17, 5-ethyl-1-(6-methoxypyridin-3-yl)-2-pyridin-2-yl-1H-benzimidazole] showed an IC50 [1] of 160 nM and an IC50 [2] of 110 nM.

For `CNc1ccc(-n2c(-c3ccc(C#N)cn3)nc3cc(C(F)(F)F)cnc32)cn1` [Example 150, 6-{3-[6-(methylamino)pyridin-3-yl]-6-(trifluoromethyl)-3H-imidazo[4,5-b]pyridin-2-yl]nicotinonitrile], the IC50 [1] was 205 nM and the IC50 [2] was 205 nM.

Compound `COc1ccc(-n2c(-c3ccn(C)n3)nc3cc(C(F)(F)F)cnc32)cn1` [Example 73, 3-(6-methoxypyridin-3-yl)-2-(1-methyl-1H-pyrazol-3-yl)-6-(trifluoromethyl)-3H-imidazo[4,5-b]pyridine] has an IC50 [1] of 83 nM and an IC50 [2] of 80 nM.

`COc1ccc(-n2c(-c3cscn3)nc3cc(C(F)(F)F)ccc32)nn1` [Example 89, 1-(6-methoxypyridazin-3-yl)-2-(1,3-thiazol-4-yl)-5-(trifluoromethyl)-1H-benzimidazole] was tested, and the IC50 [1] was 70 nM and the IC50 [2] was 53 nM.

`COc1ccc(-n2c(-c3cocn3)nc3cc(C(F)(F)F)cnc32)cn1` [Example 107, 3-(6-methoxypyridin-3-yl)-2-(1,3-oxazol-4-yl)-6-(trifluoromethyl)-3H-imidazo[4,5-b]pyridine] gave an IC50 [1] of 35 nM and an IC50 [2] of 66 nM.

`COc1ccc(-n2c(-c3ccccn3)nc3cc(OCC4CC4)ccc32)cn1` [Example 31, 5-(cyclopropylmethoxy)-1-(6-methoxypyridin-3-yl)-2-pyridin-2-yl-1H-benzimidazole] showed an IC50 [1] of 870 nM and an IC50 [2] of 250 nM.

Compound `COc1ccc(-n2c(-c3cnc(C)cn3)nc3cc(C(F)(F)F)ccc32)nn1` [Example 90, 1-(6-methoxypyridazin-3-yl)-2-(5-methylpyrazine-2-yl)-5-(trifluoromethyl)-1H-benzimidazole] has an IC50 [1] of 20 nM and an IC50 [2] of 60 nM.

`COc1ccc(-n2c(-c3cc(C)on3)nc3cc(C(F)(F)F)cnc32)cn1` [Example 108, 3-(6-methoxypyridin-3-yl)-2-(5-methylisoxazol-3-yl)-6-(trifluoromethyl)-3H-imidazo[4,5-b]pyridine] gave an IC50 [1] of 100 nM and an IC50 [2] of 210 nM.

With `COc1ccc(-n2c(-c3cocn3)nc3cc(OC(F)(F)F)ccc32)nn1` [Example 155, 1-(6-methoxypyridazin-3-yl)-2-(1,3-oxazol-4-yl)-5-(trifluoromethoxy)-1H-benzimidazole] the IC50 [1] was 29 nM and the IC50 [2] was 29 nM.

`COc1ccc(-n2c(-c3ccccn3)nc3cc(C(F)(F)F)c(Cl)cc32)cn1` [Example 55, 6-chloro-1-(6-methoxypyridin-3-yl)-2-pyridin-2-yl-5-(trifluoromethyl)-1H-benzimidazole] was tested, and the IC50 [1] was 60 nM and the IC50 [2] was 84 nM.

For `COc1ccc(-n2c(-c3coc(C)n3)nc3cc(C(F)(F)F)cnc32)cn1` [Example 122, 3-(6-methoxypyridin-3-yl)-2-(2-methyl-1,3-oxazol-4-yl)-6-(trifluoromethyl)-3H-imidazo[4,5-b]pyridine], the IC50 [1] was 40 nM and the IC50 [2] was 34 nM.

`COc1cnc(-n2c(-c3ccccn3)nc3cc(C(F)(F)F)cnc32)cn1` [Example 125, 3-(5-methoxypyrazine-2-yl)-2-pyridin-2-yl-6-(trifluoromethyl)-3H-imidazo[4,5-b]pyridine] showed an IC50 [1] of 27 nM and an IC50 [2] of 29 nM.

In the case of `COc1ccc(-n2c(-c3ncoc3C)nc3cc(C(F)(F)F)cnc32)cn1` [Example 126, 3-(6-methoxypyridin-3-yl)-2-(5-methyl-1,3-oxazol-4-yl)-6-(trifluoromethyl)-3H-imidazo[4,5-b]pyridine], the IC50 [1] is reported as 90 nM and the IC50 [2] is reported as 194 nM.

`COc1ccc(-n2c(-c3csc(C)n3)nc3cc(C(F)(F)F)cnc32)cn1` [Example 110, 3-(6-methoxypyridin-3-yl)-2-(2-methyl-1,3-thiazol-4-yl)-6-(trifluoromethyl)-3H-imidazo[4,5-b]pyridine] was tested, and the IC50 [1] was 120 nM and the IC50 [2] was 130 nM.

Work on `COc1ccc(-n2c(-c3ccccn3)nc3cc(OC(C)C)cnc32)cn1` [Example 145, 6-isopropoxy-3-(6-methoxypyridin-3-yl)-2-pyridin-2-yl-3H-imidazo[4,5-b]pyridine] yielded an IC50 [1] of 106 nM and an IC50 [2] of 74 nM.

`COc1ccc(-n2c(-c3coc(C)n3)nc3cc(C(F)(F)F)ccc32)nn1` [Example 139, 1-(6-methoxypyridazin-3-yl)-2-(2-methyl-1,3-oxazol-4-yl)-5-(trifluoromethyl)-1H-benzimidazole] gave an IC50 [1] of 86 nM and an IC50 [2] of 60 nM.

`COc1ccc(-n2c(-c3nccs3)nc3cc(C(F)(F)F)ccc32)nn1` [Example 54, 1-(6-methoxypyridazin-3-yl)-2-(1,3-thiazol-2-yl)-5-(trifluoromethyl)-1H-benzimidazole] was tested, and the IC50 [1] was 100 nM and the IC50 [2] was 190 nM.

For `COc1ccc(-n2c(-c3ccc(Br)cn3)nc3cc(C(F)(F)F)ccc32)cn1` [Example 20, 2-(5-bromopyridin-2-yl)-1-(6-methoxypyridin-3-yl)-5-(trifluoromethyl)-1H-benzimidazole], the IC50 [1] was 210 nM and the IC50 [2] was 62 nM.

Work on `COc1ccc(-n2c(-c3cc(C)on3)nc3cc(C(F)(F)F)ccc32)nn1` [Example 72, 2-(5-methylisoxazol-3-yl)-1-(6-methoxypyridazin-3-yl)-5-(trifluoromethyl)-1H-benzimidazole] yielded an IC50 [1] of 130 nM and an IC50 [2] of 180 nM.

In the case of `COc1ccc(-n2c(-c3ccc(F)cn3)nc3cc(C(F)(F)F)ccc32)cn1` [Example 21, 2-(5-fluoropyridin-2-yl)-1-(6-methoxypyridin-3-yl)-5-(trifluoromethyl)-1H-benzimidazole], the IC50 [1] is reported as 390 nM and the IC50 [2] is reported as 130 nM.

`Cc1ccc(-n2c(-c3ccc(C#N)cn3)nc3cc(C(F)(F)F)cnc32)cn1` [Example 130, 6-[3-(6-methylpyridin-3-yl)-6-(trifluoromethyl)-3H-imidazo[4,5-b]pyridin-2-yl]nicotinonitrile] gave an IC50 [1] of 170 nM and an IC50 [2] of 177 nM.

With `COc1ccc(-n2c(-c3cnn(C)c3)nc3cc(C(F)(F)F)ccc32)nn1` [Example 15, 1-(6-methoxypyridazin-3-yl)-2-(1-methyl-1H-pyrazol-4-yl)-5-(trifluoromethyl)-1H-benzimidazole] the IC50 [1] was 150 nM and the IC50 [2] was 280 nM.

For `COc1ccc(-n2c(-c3c[nH]cn3)nc3cc(C(F)(F)F)cnc32)cn1` [Example 11, 2-(1H-Imidazol-4-yl)-3-(6-methoxypyridin-3-yl)-6-(trifluoromethyl)-3H-imidazo[4,5-b]pyridine], the IC50 [1] was 57 nM and the IC50 [2] was 130 nM.
